Data taken from patent US7119063B2, “Memory-enhancing peptides and the use thereof” (Shanghai Cas Intide Biotech Co., Ltd., priority 2000, dated 2006).

System: learning and memory process of mouse
Assay: platform-jumping electrical-shock avoidance test, learning and 24 h memory, scopolamine-induced impediment
Format: in vivo
Settings: for Memory Results EN / Memory Results RT / Learning Results EN / Learning Results RT: scopolamine 1 mg/kg; for Memory Results EN / Memory Results RT: memory test 24 hrs later; for Learning Results EN / Learning Results RT: training trial
Description: The pharmacological tests of memory-enhancing peptide in this invention have been performed as following: the animals have been divided into three groups: drug administration group, control group and model group, with each group administrated with memory-enhancing peptide, saline and scopolamine respectively. In the test, the groups except control group were injected with scopolamine after the administration of medicine about 50 min., 10 min. later, the training began. First, the animals will be put into reaction box for 3 min. before each trails to familiarize them with the environment. Then, the reaction box are charged with 36V alternating current. When the animal subjects to electrical shock, it will jump up to the central platform to avoid harmful stimulation as a normal response. Most of animals may be return to the copper curdles twice or even more times, but they will jump back to the platform swiftly as the results of electrical shock. Each test trail will be performed for 5 min. and two following indices will be used to represent the learning results: (I) the number of total error (EN) during the whole training period; (2) the reaction time (RT) for the first returning to the copper curdle in the trail. The trails will repeat again 24 hrs later as memory test.

Molecule | Memory Results EN (drug 100 μg/kg) | Memory Results RT (drug 100 μg/kg) [s] | Learning Results EN (drug 100 μg/kg, number of total errors) | Learning Results RT (drug 100 μg/kg, reaction time for first return to the copper curdle) [s] | effect on memory and learning impediment induced by scopolamine, compared with model group (0.5 μg and 1 μg/kg, longer incubation period and lesser error numbers, P<0.01) | effect on memory and learning impediment induced by scopolamine, compared with Huperzine A (100 μg/kg) (0.5 μg/kg and 1 μg/kg) | Memory Results EN (drug 0.25 μg/kg) | Memory Results RT (drug 0.25 μg/kg) [s] | Learning Results EN (drug 0.25 μg/kg) | Learning Results RT (drug 0.25 μg/kg) [s] | Memory Results EN (drug 0.5 μg/kg) | Memory Results RT (drug 0.5 μg/kg) [s] | Learning Results EN (drug 0.5 μg/kg) | Learning Results RT (drug 0.5 μg/kg) [s] | Memory Results EN (drug 1 μg/kg) | Memory Results RT (drug 1 μg/kg) [s] | Learning Results EN (drug 1 μg/kg) | Learning Results RT (drug 1 μg/kg) [s] | effect on memory and learning impediment induced by scopolamine (summary of Table 1) (mouse, in vivo)
C/C=C1\[C@H]2C=C(C)C[C@]1(N)c1ccc(=O)[nH]c1C2 [Huperzine A, reference compound] | 0.9 | 231.9 | 1.3 | 120.5 |  |  |  |  |  |  |  |  |  |  |  |  |  |  | 
PyroGlu-Asn-Cys(S-Bu^t)-Pro-Arg [MEP-531] |  |  |  |  | obviously improve | better effects than Huperzine A | 0.9 | 197.6 | 0.3 | 78.8 | 0.5 | 245.5 | 0.2 | 241.6 | 0.3 | 282.8 | 0.3 | 267.6 | remarkably ameliorate
